Source: ChEMBL document CHEMBL1123631, “Synthesis and gastrointestinal pharmacology of the 4-fluoro analogue of enisoprost” (1987)

Experiments:
Format in all cases: functional
Canis familiaris [1] = experiment: Gastric antisecretory activity was determined in food stimulated Pavlov dogs by intrapouch administration ig; Value ranges from 6.2-15.3; conditions: Canis lupus familiaris
Rattus norvegicus = species on record: Rattus norvegicus; experiment: Mucosal protective activity in rats was measured as minimum effective dose (MED); ig; conditions: po, read-out: MED
Canis familiaris [2] = experiment: Gastric antisecretory activity was determined in food stimulated Pavlov dogs by intrapouch administration ig; Value ranges from 0.017-0.032; conditions: Canis lupus familiaris

Compound | ED50 (Canis familiaris [1]) [µg/kg] | minimal effective dose (Rattus norvegicus) [µg/kg] | ED50 (Canis familiaris [2]) [µg/kg]
CCCCC(C)(O)C/C=C/[C@H]1[C@H](O)CC(=O)[C@@H]1CC/C=C(/F)CCC(=O)OC (some centres undefined) | 9.7 | 50 | –
CCCCC(C)(O)C/C=C/[C@H]1[C@H](O)CC(=O)[C@@H]1CC/C=C\CCC(=O)OC (some centres undefined) [ENISOPROST] | – | 1 | 0.023
